Values after ≈ are worked out from the molar mass of the structure shown.
Columns and labels:
[1] = system: Mycobacterium tuberculosis; assay: Antimicrobial activity against Mycobacterium tuberculosis H37Rv ATCC 27294 at 6.25 ug/mL by broth microdilution assay; type: functional
[2] = system: Mycobacterium tuberculosis; assay: Antimicrobial activity against Mycobacterium tuberculosis H37Rv ATCC 27294 by microplate Almar blue assay; type: functional; details: Mycobacterium tuberculosis, H37Rv ATCC 27294; read-out: MIC
Vero = assay: Cytotoxicity against african green monkey Vero cells at after 72 hrs by MTT assay; type: cell-based, Chlorocebus sabaeus; details: Chlorocebus sabaeus, Vero, 72 h; read-out: IC50
[3] = Selective index, the ratio of IC50 in the african green monkey Vero cells to the MIC to Mycobacterium tuberculosis H37Rv ATCC 27294; type: functional

Compound | inhibition at 6.25 µg/mL [1] [%] | MIC [2] [µg/mL] | IC50 (Vero) [µg/mL] | Selectivity Index [3]
Brc1cccc(CCCN2CCN([C@@H](Cc3ccccc3)CN3CCCC3CN3CCNC[C@@H]3Cc3ccccc3)C[C@@H]2Cc2ccccc2)c1 (stereo not given in full) | 99 | 3.9 (≈ 5.21 µM) | 1.12 (≈ 1.5 µM) | 0.29
FC(F)(F)c1cccc(CCN2CCN([C@@H](Cc3ccccc3)CN3CCCC3CN3CCNC[C@@H]3Cc3ccccc3)C[C@@H]2Cc2ccccc2)c1 (stereo not given in full) | 99 | 3.9 (≈ 5.39 µM) | 1.12 (≈ 1.55 µM) | 0.29
Oc1ccc(CCN2CCN([C@@H](Cc3ccccc3)CN3CCCC3CN3CCNC[C@@H]3Cc3ccccc3)C[C@@H]2Cc2ccccc2)cc1 (stereo not given in full) | 99 | 3.9 (≈ 5.8 µM) | 1.11 (≈ 1.65 µM) | 0.28
Cc1cccc(CCN2CCN([C@@H](Cc3ccccc3)CN3CCCC3CN3CCNC[C@@H]3Cc3ccccc3)C[C@@H]2Cc2ccccc2)c1 (stereo not given in full) | 99 | 3.9 (≈ 5.82 µM) | 1.05 (≈ 1.57 µM) | 0.27
c1ccc(CCN2CCN([C@H](Cc3ccc4ccccc4c3)CN3CCCC3CN3CCNC[C@@H]3Cc3ccccc3)C[C@@H]2Cc2ccccc2)cc1 (stereo not given in full) | 100 | 3.9 (≈ 5.52 µM) | 1.06 (≈ 1.5 µM) | 0.27
Fc1ccc(CCN2CCN([C@@H](Cc3ccccc3)CN3CCCC3CN3CCNC[C@@H]3Cc3ccccc3)C[C@@H]2Cc2ccccc2)cc1 (stereo not given in full) | 98 | 3.9 (≈ 5.79 µM) | 1.05 (≈ 1.56 µM) | 0.27
Clc1ccc(CCN2CCN([C@@H](Cc3ccccc3)CN3CCCC3CN3CCNC[C@@H]3Cc3ccccc3)C[C@@H]2Cc2ccccc2)cc1Cl (stereo not given in full) | 99 | 3.9 (≈ 5.38 µM) | 1.07 (≈ 1.48 µM) | 0.27
CC(C)[C@@H](CN1CCCC1CN1CCNC[C@@H]1Cc1ccccc1)N1CCN(CCc2ccccc2)[C@@H](Cc2ccccc2)C1 (stereo not given in full) | 100 | 3.9 (≈ 6.42 µM) | 1 (≈ 1.64 µM) | 0.26
CCCC[C@@H](CN1CCCC1CN1CCNC[C@@H]1Cc1ccccc1)N1CCN(CCc2ccccc2)[C@@H](Cc2ccccc2)C1 (stereo not given in full) | 100 | 3.9 (≈ 6.27 µM) | 1 (≈ 1.61 µM) | 0.26
c1ccc(CCN2CCN([C@@H](Cc3ccc4ccccc4c3)CN3CCCC3CN3CCNC[C@@H]3Cc3ccccc3)C[C@@H]2Cc2ccccc2)cc1 (stereo not given in full) | 100 | 3.9 (≈ 5.52 µM) | 1 (≈ 1.42 µM) | 0.26
CCOc1ccc(CCN2CCN([C@@H](Cc3ccccc3)CN3CCCC3CN3CCNC[C@@H]3Cc3ccccc3)C[C@@H]2Cc2ccccc2)cc1 (stereo not given in full) | 98 | 3.9 (≈ 5.57 µM) | 1.03 (≈ 1.47 µM) | 0.26
CCCCCCCN1CCN([C@@H](Cc2ccccc2)CN2CCCC2CN2CCNC[C@@H]2Cc2ccccc2)C[C@@H]1Cc1ccccc1 (stereo not given in full) | 99 | 3.9 (≈ 6 µM) | 1.03 (≈ 1.58 µM) | 0.26
CCC(C)CCN1CCN([C@@H](Cc2ccccc2)CN2CCCC2CN2CCNC[C@@H]2Cc2ccccc2)C[C@@H]1Cc1ccccc1 (stereo not given in full) | 96 | 3.9 (≈ 6.13 µM) | 1 (≈ 1.57 µM) | 0.26
c1ccc(C[C@H]2CNCCN2CC2CCCN2C[C@H](Cc2ccccc2)N2CCN(CCc3ccc(-c4ccccc4)cc3)[C@@H](Cc3ccccc3)C2)cc1 (stereo not given in full) | 97 | 3.9 (≈ 5.33 µM) | 1 (≈ 1.37 µM) | 0.26
CC(C)C[C@@H](CN1CCCC1CN1CCNC[C@@H]1Cc1ccccc1)N1CCN(CCc2ccccc2)[C@@H](Cc2ccccc2)C1 (stereo not given in full) | 100 | 3.9 (≈ 6.27 µM) | 0.99 (≈ 1.59 µM) | 0.25
c1ccc(CCN2CCN([C@@H](Cc3ccccc3)CN3CCCC3CN3CCNC[C@@H]3Cc3ccccc3)C[C@H]2CC2CCCCC2)cc1 (stereo not given in full) | 98 | 3.9 (≈ 5.89 µM) | 0.97 (≈ 1.47 µM) | 0.25
c1ccc(CCN2CCN([C@H](CC3CCCCC3)CN3CCCC3CN3CCNC[C@@H]3Cc3ccccc3)C[C@@H]2Cc2ccccc2)cc1 (stereo not given in full) | 98 | 3.9 (≈ 5.89 µM) | 0.92 (≈ 1.39 µM) | 0.24
c1ccc(C[C@H]2CNCCN2CC2CCCN2C[C@H](Cc2ccccc2)N2CCN(CC3(c4ccccc4)CC3)[C@@H](Cc3ccccc3)C2)cc1 (stereo not given in full) | 99 | 3.9 (≈ 5.72 µM) | 0.94 (≈ 1.38 µM) | 0.24
Cc1ccc(CN2CCN([C@@H](Cc3ccccc3)CN3CCCC3CN3CCNC[C@@H]3Cc3ccccc3)C[C@@H]2Cc2ccccc2)cc1 (stereo not given in full) | 98 | 3.9 (≈ 5.95 µM) | 0.88 (≈ 1.34 µM) | 0.23
CC(CCN1CCN([C@@H](Cc2ccccc2)CN2CCCC2CN2CCNC[C@@H]2Cc2ccccc2)C[C@@H]1Cc1ccccc1)c1ccccc1 (stereo not given in full) | 99 | 3.9 (≈ 5.7 µM) | 0.87 (≈ 1.27 µM) | 0.22
c1ccc(CCN2CCN([C@@H](Cc3ccccc3)CN3CCCC3CN3CCNC[C@H]3Cc3ccccc3)C[C@@H]2Cc2ccccc2)cc1 (stereo not given in full) | 99 | 3.9 (≈ 5.95 µM) | 0.86 (≈ 1.31 µM) | 0.22
c1ccc(C[C@H]2CNCCN2CC2CCCN2C[C@H](Cc2ccccc2)N2CCN(CCC3CC4CCC3C4)[C@@H](Cc3ccccc3)C2)cc1 (stereo not given in full) | 97 | 3.9 (≈ 5.79 µM) | 0.87 (≈ 1.29 µM) | 0.22
c1ccc(CCN2CCN([C@@H](Cc3ccccc3)CN3CCCC3CN3CCNC[C@@H]3Cc3ccccc3)C[C@@H]2CC2CCCCC2)cc1 (stereo not given in full) | 99 | 3.9 (≈ 5.89 µM) | 0.82 (≈ 1.24 µM) | 0.21
Fc1cccc(CCN2CCN([C@@H](Cc3ccccc3)CN3CCCC3CN3CCNC[C@@H]3Cc3ccccc3)C[C@@H]2Cc2ccccc2)c1 (stereo not given in full) | 98 | 3.9 (≈ 5.79 µM) | 0.8 (≈ 1.19 µM) | 0.21
CCC(C)CN1CCN([C@@H](Cc2ccccc2)CN2CCCC2CN2CCNC[C@@H]2Cc2ccccc2)C[C@@H]1Cc1ccccc1 (stereo not given in full) | 97 | 3.9 (≈ 6.27 µM) | 0.7 (≈ 1.13 µM) | 0.18
c1ccc(C[C@H]2CNCCN2CC2CCCN2C[C@H](Cc2ccccc2)N2CCN(CC3CCCCC3)[C@@H](Cc3ccccc3)C2)cc1 (stereo not given in full) | 100 | 3.9 (≈ 6.02 µM) | 0.71 (≈ 1.1 µM) | 0.18
c1ccc(C[C@H]2CNCCN2CC2CCCN2C[C@H](Cc2ccccc2)N2CCN(CCC3CCCCC3)[C@@H](Cc3ccccc3)C2)cc1 (stereo not given in full) | 99 | 3.9 (≈ 5.89 µM) | 0.62 (≈ 0.937 µM) | 0.16
c1ccc(C[C@H]2CNCCN2CC2CCCN2C[C@H](Cc2ccccc2)N2CCN(CCCC3CCCC3)[C@@H](Cc3ccccc3)C2)cc1 (stereo not given in full) | 100 | 3.9 (≈ 5.89 µM) | 0.42 (≈ 0.634 µM) | 0.11
COc1cccc(CCN2CCN([C@@H](Cc3ccccc3)CN3CCCC3CN3CCNC[C@@H]3Cc3ccccc3)C[C@@H]2Cc2ccccc2)c1 (stereo not given in full) | 99 | 3.9 (≈ 5.69 µM) | 0.32 (≈ 0.466 µM) | 0.08
COc1ccc(CCN2CCN([C@@H](Cc3ccccc3)CN3CCCC3CN3CCNC[C@@H]3Cc3ccccc3)C[C@@H]2Cc2ccccc2)cc1 (stereo not given in full) | 99 | 3.9 (≈ 5.69 µM) | 0.33 (≈ 0.481 µM) | 0.08

— ChEMBL document CHEMBL1153803, “Parallel synthesis of chiral pentaamines and pyrrolidine containing bis-heterocyclic libraries. Multiple scaffolds with multiple building blocks: a double diversity for the identification of new antitubercular compounds” (Bioorg Med Chem Lett, 2009)
